Measurements published in PubChem BioAssay AID200 (DTP/NCI, 2004).
Where “and” joins values, the source holds several entries; their conditions need not be identical. Identical values can stand only once. Inconclusive results and toxic doses are left out. Rule for the calls: active = survival T/C of 150% or more; inactive = T/C below 125% in these data.

Tested on: B6C3F1 mice, B16 melanoma ip, median survival T/C
Assay: NCI In Vivo Anticancer Drug Screen. Data for tumor model B16 Melanoma (intraperitoneal) in B6C3F1 mice
Conditions: endpoint: median survival time, higher = longer survival
Outline: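 Readout: survival or tumor size in treated mice relative to vehicle controls (T/C). Model uses transplantable tumors grown in mice.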

[1] = dose: 6.25 mg/kg/injection, schedule: Q01DX009 (ip), vehicle: saline with Tween-80
[2] = dose: 12.5 mg/kg/injection, schedule: Q01DX009 (ip), vehicle: saline with Tween-80
[3] = dose: 25.0 mg/kg/injection, schedule: Q01DX009 (ip), vehicle: saline with Tween-80
[4] = dose: 50.0 mg/kg/injection, schedule: Q01DX009 (ip), vehicle: saline with Tween-80
[5] = dose: 6.25 mg/kg/injection, schedule: Q01DX009 (ip), vehicle: saline
[6] = dose: 12.5 mg/kg/injection, schedule: Q01DX009 (ip), vehicle: saline
[7] = dose: 25.0 mg/kg/injection, schedule: Q01DX009 (ip), vehicle: saline
[8] = dose: 100.0 mg/kg/injection, schedule: Q01DX009 (ip), vehicle: saline with Tween-80
[9] = dose: 200.0 mg/kg/injection, schedule: Q01DX009 (ip), vehicle: saline with Tween-80
[10] = dose: 400.0 mg/kg/injection, schedule: Q01DX009 (ip), vehicle: saline with Tween-80
[11] = dose: 6.25 mg/kg/injection, schedule: Q01DX009 (ip), vehicle: Klucel (hydroxypropylcellulose) (HPC)
[12] = dose: 50.0 mg/kg/injection, schedule: Q01DX009 (ip), vehicle: saline
[13] = dose: 200.0 mg/kg/injection, schedule: Q01DX009 (ip), vehicle: saline
[14] = dose: 400.0 mg/kg/injection, schedule: Q01DX009 (ip), vehicle: saline

Measured: T/C

CCCCNP1(NCCCC)=NP(NCCCC)(NCCCC)=NP(NCCCC)(NCCCC)=NP(NCCCC)(NCCCC)=N1
inactive: [1] 111 % of control and 98 % of control | [2] 115 % of control and 122 % of control and 101 % of control | [3] 119 % of control and 104 % of control | [4] 115 % of control

CCCCCCCCCCCCOCCCOP(=O)([O-])OCC[N+](C)(C)C
inactive: dose: 3.13 mg/kg/injection, schedule: Q01DX009 (ip), vehicle: saline 100 % of control | [5] 100 % of control | [6] 100 % of control | [7] 91 % of control

Cc1c2ccccc2cc2cccc[n+]12
inactive: dose: 2.5 mg/kg/injection, schedule: Q01DX009 (ip), vehicle: saline 106 % of control and 107 % of control | dose: 5.0 mg/kg/injection, schedule: Q01DX009 (ip), vehicle: saline 101 % of control and 104 % of control | dose: 10.0 mg/kg/injection, schedule: Q01DX009 (ip), vehicle: saline 102 % of control and 107 % of control | dose: 20.0 mg/kg/injection, schedule: Q01DX009 (ip), vehicle: saline 99 % of control and 101 % of control

CCc1nc(N)nc(N)c1-c1ccc(Cl)c(Cl)c1.[Cl][Pd][Cl]
inactive: dose: 3.12 mg/kg/injection, schedule: Q01DX009 (ip), vehicle: saline 114 % of control

Cc1ccc(C2NC(=S)N3C(c4ccc(C)cc4)NC(=S)N23)cc1 (stereo not given)
inactive: dose: 25.0 mg/kg/injection, schedule: Q01DX009 (ip), vehicle: Klucel (hydroxypropylcellulose) (HPC) 119 % of control | dose: 50.0 mg/kg/injection, schedule: Q01DX009 (ip), vehicle: Klucel (hydroxypropylcellulose) (HPC) 114 % of control | dose: 100.0 mg/kg/injection, schedule: Q01DX009 (ip), vehicle: Klucel (hydroxypropylcellulose) (HPC) 118 % of control | dose: 200.0 mg/kg/injection, schedule: Q01DX009 (ip), vehicle: Klucel (hydroxypropylcellulose) (HPC) 109 % of control and 88 % of control | dose: 400.0 mg/kg/injection, schedule: Q01DX009 (ip), vehicle: Klucel (hydroxypropylcellulose) (HPC) 114 % of control and 105 % of control | dose: 800.0 mg/kg/injection, schedule: Q01DX009 (ip), vehicle: Klucel (hydroxypropylcellulose) (HPC) 101 % of control

COc1cccc2c1C(=O)c1c(O)c3c(c(O)c1C2=O)C[C@H](O)C[C@@H]3OC1CC(N)C(O)C(C)O1 (stereo not given in full)
active: dose: 0.75 mg/kg/injection, schedule: Q01DX009 (ip), vehicle: saline 150 % of control | dose: 0.75 mg/kg/injection, schedule: Q01DX009 (ip), vehicle: water 159 % of control | dose: 1.5 mg/kg/injection, schedule: Q01DX009 (ip), vehicle: saline 184 % of control | dose: 1.5 mg/kg/injection, schedule: Q01DX009 (ip), vehicle: water 164 % of control | dose: 3.0 mg/kg/injection, schedule: Q01DX009 (ip), vehicle: saline 175 % of control | dose: 3.0 mg/kg/injection, schedule: Q01DX009 (ip), vehicle: water 192 % of control | dose: 6.0 mg/kg/injection, schedule: Q01DX009 (ip), vehicle: saline 260 % of control | dose: 6.0 mg/kg/injection, schedule: Q01DX009 (ip), vehicle: water 215 % of control | dose: 12.0 mg/kg/injection, schedule: Q01DX009 (ip), vehicle: saline 346 % of control | dose: 12.0 mg/kg/injection, schedule: Q01DX009 (ip), vehicle: water 320 % of control | dose: 24.0 mg/kg/injection, schedule: Q01DX009 (ip), vehicle: saline 183 % of control

N#CCCSC(=S)C1CCCC1=N (stereo not given)
inactive: [2] 103 % of control | [3] 106 % of control | [4] 98 % of control | [8] 106 % of control | [9] 103 % of control | [10] 104 % of control

ClCCCN1CCN(CCCCl)CC1
inactive: dose: 6.25 mg/kg/injection, schedule: Q01DX009 (ip), vehicle: distilled water + alcohol 109 % of control and 98 % of control | dose: 12.5 mg/kg/injection, schedule: Q01DX009 (ip), vehicle: distilled water + alcohol 102 % of control and 104 % of control | dose: 25.0 mg/kg/injection, schedule: Q01DX009 (ip), vehicle: distilled water + alcohol 108 % of control and 105 % of control | dose: 50.0 mg/kg/injection, schedule: Q01DX009 (ip), vehicle: distilled water + alcohol 118 % of control and 107 % of control | dose: 100.0 mg/kg/injection, schedule: Q01DX009 (ip), vehicle: distilled water + alcohol 115 % of control and 118 % of control

CC1=C2C(=CO[C@H](C)[C@H]2C)C(=O)C(C(=O)O)=C1O
inactive: [11] 105 % of control | [5] 108 % of control | dose: 12.5 mg/kg/injection, schedule: Q01DX009 (ip), vehicle: Klucel (hydroxypropylcellulose) (HPC) 102 % of control | [6] 100 % of control | [7] 100 % of control | [12] 98 % of control

CN(C)CCOc1ccc2c(c1)C/C(=C/c1ncc([N+](=O)[O-])n1C)C2=O
inactive: [1] 100 % of control | [2] 104 % of control | [3] 100 % of control | [4] 111 % of control

O=C1C(=O)c2cccnc2-c2ncccc21
inactive: dose: 0.75 mg/kg/injection, schedule: Q01DX009 (ip), vehicle: Klucel (hydroxypropylcellulose) (HPC) 104 % of control | dose: 0.78 mg/kg/injection, schedule: Q01DX009 (ip), vehicle: Klucel (hydroxypropylcellulose) (HPC) 102 % of control | dose: 1.5 mg/kg/injection, schedule: Q01DX009 (ip), vehicle: Klucel (hydroxypropylcellulose) (HPC) 115 % of control and 107 % of control | dose: 1.56 mg/kg/injection, schedule: Q01DX009 (ip), vehicle: Klucel (hydroxypropylcellulose) (HPC) 115 % of control and 98 % of control | dose: 3.0 mg/kg/injection, schedule: Q01DX009 (ip), vehicle: Klucel (hydroxypropylcellulose) (HPC) 119 % of control and 92 % of control and 98 % of control | dose: 3.12 mg/kg/injection, schedule: Q01DX009 (ip), vehicle: Klucel (hydroxypropylcellulose) (HPC) 114 % of control and 100 % of control | dose: 6.0 mg/kg/injection, schedule: Q01DX009 (ip), vehicle: Klucel (hydroxypropylcellulose) (HPC) 113 % of control and 87 % of control and 108 % of control | [11] 109 % of control

C=C1C(=O)C23[C@H](O)C1CC[C@H]2[C@]12COC3(O)[C@@H](O)[C@@H]1C(C)(C)CC[C@@H]2O
inactive: dose: 1.56 mg/kg/injection, schedule: Q01DX009 (ip), vehicle: saline with Tween-80 98 % of control | dose: 3.12 mg/kg/injection, schedule: Q01DX009 (ip), vehicle: saline with Tween-80 106 % of control | dose: 4.5 mg/kg/injection, schedule: Q01DX009 (ip), vehicle: Klucel (hydroxypropylcellulose) (HPC) 97 % of control | [1] 115 % of control | dose: 9.0 mg/kg/injection, schedule: Q01DX009 (ip), vehicle: Klucel (hydroxypropylcellulose) (HPC) 93 % of control | [2] 108 % of control | dose: 18.0 mg/kg/injection, schedule: Q01DX009 (ip), vehicle: Klucel (hydroxypropylcellulose) (HPC) 99 % of control | [3] 98 % of control

CCCC(NC(=O)CN)C(=O)O (stereo not given)
inactive: [7] 108 % of control | [12] 100 % of control | dose: 100.0 mg/kg/injection, schedule: Q01DX009 (ip), vehicle: saline 99 % of control | [13] 94 % of control | [14] 108 % of control

O=NNc1ccc(Cl)cn1
active: dose: 12.5 mg/kg/injection, schedule: Q01DX009 (ip), vehicle: water 166 % of control and 168 % of control
inactive: dose: 1.56 mg/kg/injection, schedule: Q01DX009 (ip), vehicle: water 118 % of control | dose: 3.13 mg/kg/injection, schedule: Q01DX009 (ip), vehicle: water 107 % of control | dose: 6.25 mg/kg/injection, schedule: Q01DX009 (ip), vehicle: water 115 % of control

NC(CO)(CO)CO
inactive: [13] 104 % of control | dose: 200.0 mg/kg/injection, schedule: Q12HX018 (ip), vehicle: saline 102 % of control | [14] 102 % of control | dose: 400.0 mg/kg/injection, schedule: Q12HX018 (ip), vehicle: saline 102 % of control | dose: 800.0 mg/kg/injection, schedule: Q01DX009 (ip), vehicle: saline 98 % of control | dose: 800.0 mg/kg/injection, schedule: Q12HX018 (ip), vehicle: saline 106 % of control | dose: 1600.0 mg/kg/injection, schedule: Q01DX009 (ip), vehicle: saline 98 % of control | dose: 1600.0 mg/kg/injection, schedule: Q12HX018 (ip), vehicle: saline 101 % of control

CCSCCNC(=O)[C@@]1(O)[C@H](O)[C@]2(CC)C=CCN3CC[C@@]4(c5cc([C@@]6(OC(C)=O)C[C@H]7C=C(CC)CN(CCc8c6[nH]c6ccccc86)C7)c(OC)cc5N(C)[C@@H]14)[C@@H]32
active: dose: 0.5 mg/kg/injection, schedule: Q01DX009 (ip), vehicle: water 164 % of control

C=COC(=O)C(Cc1ccccc1)NC(=O)OCc1ccccc1 (stereo not given)
inactive: [3] 102 % of control | [4] 98 % of control | [8] 96 % of control | [9] 102 % of control | [10] 90 % of control
